Results from a melting point compilation (Tetko et al.; mined from patent text by program, amines drawn as free bases though some values may be those of a salt).

Work on `CCOc1ccc2c(c1)n(-c1ccccc1Cl)c(=O)n2Cc1ccc(NC(=O)N(CC)CC)cc1OC` yielded a melting point of 150 °C.
With `O=C(O)c1cn(-c2cc([N+](=O)[O-])c(F)cc2F)c2cc(F)c(F)cc2c1=O` the melting point was over 270 °C.
`CS(=O)c1c2ccccc2c(C=O)c2ccccc12` (configuration not stated) showed a melting point of 182 to 184 °C.
In the case of `CCCN(CCC)C1Cc2cccc3c2n(c(=O)n3C)C1` (configuration not stated), the melting point is reported as 83 to 85 °C.
`O=C(NCc1cccs1)C1CCCCC1` showed a melting point of 105 °C.
For `COc1cc(-c2ccncc2)n[nH]1`, the melting point was 140 °C.
In the case of `CCOC(=O)NC1CCCCn2c1nc(-c1ccncn1)cc2=O` (configuration not stated), the melting point is reported as 168 to 170 °C.
For `CCN(c1ccc(Cl)cc1C(N)=S)S(=O)(=O)c1ccc(C)cc1`, the melting point was 180 to 182 °C.
Work on `Clc1ncnc2c1CCOc1ccccc1-2` yielded a melting point of 114 to 115 °C.
Work on `CC(=O)NC(Cc1ccc(C)c(C)c1)C(=O)O` (racemic) yielded a melting point of 136 to 139 °C.
With `COc1ccc([C@@H]2Sc3cc(Cc4ccc(F)cc4)ccc3N(CCN(C)C)C(=O)[C@@H]2OC(C)=O)cc1` the melting point was 154 to 156 °C.
Compound `CCOCc1nc2c(N)nc(C)c(C)c2n1NC(C)C` has a melting point of 110 to 120 °C.
For `N=C(Nc1cccc(NC(=O)/C=C/c2ccccc2C(F)(F)F)c1)c1ccccc1`, the melting point was 82 to 84 °C.
In the case of `COc1ccc(C2=C(c3ccc(S(C)(=O)=O)cc3)CCC2)cc1`, the melting point is reported as 129 to 130 °C.
Work on `N#Cc1ccc(N2CCN(Cc3cn4cc(Cl)ccc4n3)CC2)c(Cl)c1` yielded a melting point of 137 to 138 °C.
Work on `CC(C)(C)OC(=O)NCc1ccc(N)cc1` yielded a melting point of 74.4 °C.
Compound `CC(CCCCc1ccc(F)cc1)NCc1c(CO)ccc(O)c1CO` (configuration not stated) has a melting point of 72 to 77 °C.
`OCc1ccc(-c2ccc(-c3ccsc3)s2)s1` showed a melting point of 158 to 160 °C.
Compound `O=[N+]([O-])c1oc2ccc(CN3CCCC3)cc2c1-c1ccccc1` has a melting point of 111 to 112 °C.
Compound `CC(C)CNC(=O)C(C)NC(=O)C(C)NC(=O)C(C)NC(=O)CCCC(=O)O` (configuration not stated) has a melting point of 292 to 293 °C.
In the case of `CCc1nc2cc(C(F)(F)F)c(Cl)cc2n1-c1ccc(CCOC(=O)NS(=O)(=O)c2cn(C)c(C)n2)cc1`, the melting point is reported as 221 °C.
Work on `CC(=O)N1c2c(ccn3cc(C)nc23)C(=O)C(OC(=O)C(C)(C)C)C1c1ccccc1` (configuration not stated) yielded a melting point of 168 to 169 °C.
`O=C(O)Cn1c(=O)sc2cc(Br)c(Cl)cc21` showed a melting point of 249 to 252 °C.
Compound `CCOc1ccc([N+](=O)[O-])cc1NC(C)=O` has a melting point of 195 to 198 °C.
For `CCc1ccc2c(c1)C(=O)CCCC(=O)N2`, the melting point was 138 to 140 °C.
`CCCSc1nc(-c2ccc(OC)cc2)c(-c2ccc(OC)cc2)s1` showed a melting point of 58 to 60 °C.
`OCCN1CCN(CC2CNCCO2)CC1` (configuration not stated) gave a melting point of 73 to 75.5 °C.
`COCCN1CCN(CCc2ccccc2Nc2ncnc3[nH]cc(C(=O)c4ccccc4)c23)CC1` showed a melting point of 192 to 193 °C.
Compound `CCCCC[C@H]1CC[C@H](c2ccc(Br)nn2)CC1` has a melting point of 101 to 103 °C.
In the case of `CCc1nc2cc(OC)c(OC)cc2c(-c2ccc(OC)c(OC)c2)c1C(=O)O`, the melting point is reported as 264 to 267 °C.
Compound `COc1cccc(Nc2ccnc(Nc3cc(OC)c(OC)c(SC)c3)n2)c1` has a melting point of 68 to 70 °C.
Work on `[O-][N+]#Cc1c(Cl)ccc2cc(Cl)cnc12` yielded a melting point of 185 °C.
`O=C(O)CN(C(=O)OCc1ccccc1)c1ccc(O)cc1` gave a melting point of 196 to 198 °C.
`CCOc1cc(C(=O)OC)nc2cc(OC)c3ncccc3c12` gave a melting point of 188 to 190 °C.
Work on `N#CC1=Cc2ccc(OCc3ccccc3)cc2OC1` yielded a melting point of 108 to 109 °C.
For `CSc1ncc2cc(Oc3ccc(F)cc3F)c(NS(C)(=O)=O)nc2n1`, the melting point was 199 to 204 °C.
In the case of `COC(=O)c1cccc([N+](=O)[O-])c1NC(=O)OC(C)(C)C`, the melting point is reported as 92 to 94 °C.
`CN1CCN(C(=O)OC2C3=C(SCCS3)C(=O)N2c2ccc3ccc(Cl)cc3n2)CC1` (configuration not stated) showed a melting point of 192 °C.
With `CCc1nc2c(N)nc3ccccc3c2n1CC1(O)CCOC1` (configuration not stated) the melting point was 245 to 247 °C.
`COc1ccc2cc(-c3cnccn3)ccc2n1` showed a melting point of 130 to 132 °C.
In the case of `CC(C)(C)c1ccc(C(=O)Nc2cn3cc(-n4ccnc4)ccc3n2)cn1`, the melting point is reported as 242 to 245 °C.
Work on `N#CSc1c(C(F)(F)F)nn(-c2c(Cl)cc(C(F)(F)F)cc2Cl)c1N` yielded a melting point of 49 to 50 °C.
`CC(=O)Nc1c(C)cccc1CCC(=O)O` showed a melting point of 110 °C.
`O=C(Cn1c(=O)c(=O)[nH]c2cc([N+](=O)[O-])c(-n3cccc3)cc21)Nc1ccccc1` showed a melting point of over 300 °C.
For `CC(=O)NC[C@H]1CN(c2ccc(N3CCC(=CC#N)C(C)(C)C3)c(F)c2)C(=O)O1`, the melting point was 150 to 152 °C.
`Clc1c2c(nc3ccc(C4CCCCC4)cc13)CCCC2` gave a melting point of 89 to 91 °C.
`O=C/C=C/c1c(-c2ccc(F)cc2)n(CCc2ccccc2)c(=O)c2ccccc12` showed a melting point of 133 to 134 °C.
With `Nc1c(Br)cc(Br)n2nc(SCc3ccccc3)nc12` the melting point was 116 to 118 °C.
Compound `CN(C)c1ccc(C2OC(=O)c3cc(N(C)C)ccc32)c(Cl)c1` (configuration not stated) has a melting point of 159 to 160 °C.
In the case of `NC(=O)n1cc(-c2ccc(Oc3ccc(N)cc3)cc2)cn1`, the melting point is reported as 158 to 160 °C.
In the case of `O=C(NN=Cc1ccc(Cl)cc1)c1[nH]c2ccccc2c1C(=O)Nc1ccccc1`, the melting point is reported as over 260 °C.
For `COc1cc2ccsc2c(Cl)c1Cl`, the melting point was 103 to 104 °C.
With `CN(C)C1CCC(Nc2nc3cc(Cl)c(Cl)cc3nc2-c2cccnc2)CC1` (configuration not stated) the melting point was 158 to 161 °C.
`CC(=O)c1nnn(C[C@@H]2C[C@@H](S)CN2S(=O)(=O)c2ccc3ccccc3c2)c1C` gave a melting point of 145 °C.
`COc1cc(C(=O)O)ccc1Cc1csc2ccc(NC(=O)OC3CCCC3)cc12` showed a melting point of 259 to 261 °C.
Compound `CCc1ccccc1-n1ncc(C#N)c1N` has a melting point of 130 °C.
`CCCCc1nc2cc(Cl)c(Cl)c(C(=O)O)c2n1Cc1ccccc1Cl` showed a melting point of 240 °C.
`Cc1cc(-c2cccc(C(F)(F)F)c2)nn2cnnc12` showed a melting point of 181 to 183 °C.
`COc1cc(C=CC(=O)c2c(OCC=C(C)C)ccc3c(=O)c4ccccc4oc23)cc(OC)c1OC` gave a melting point of 153 to 155 °C.
Work on `CCCc1nc2c(N)nc3cc(Br)ccc3c2n1NC(C)C` yielded a melting point of 226 to 228 °C.
For `COc1cc(Nc2c(C#N)cnc3cc4cc(OC)c(OCCN5CCC(O)CC5)cc4cc23)c(Cl)cc1C`, the melting point was 205 to 235 °C.
Compound `CC1=NC(NC(=O)Nc2cccc(C)c2)C(=O)N(CC(=O)c2ccccc2C)c2c(C)cccc21` (configuration not stated) has a melting point of 128 to 136 °C.
`NCCCC(O)c1ccccc1` (configuration not stated) gave a melting point of 94 to 96 °C.
`O=C(NOC1CCCCO1)c1ccc(C(=O)Nc2cccc(Nc3nc(-c4cccnc4)cs3)c2)cc1` (configuration not stated) showed a melting point of 224 °C.
With `N#Cc1cc(Cl)nc(NN)c1` the melting point was 208 to 210 °C.
For `COCn1ncc2cc(C(=O)NN)ccc21`, the melting point was 141 to 142 °C.
Compound `O=C(O)c1cccc(-c2ccc3c(c2)N(Cc2ccc(Cl)c(Cl)c2)CC3)c1` has a melting point of 167 to 168 °C.
Work on `Cc1ccccc1Nc1nc2ccc(CC(=O)O)cc2o1` yielded a melting point of 199 to 200 °C.
For `COc1cc(NC(C)=O)cc(OC)c1-c1ccc(C[C@H](NC(=O)c2c(Cl)cccc2Cl)C(=O)O)cc1`, the melting point was 243 to 244 °C.
`CN(CC(=O)NO)S(=O)(=O)Cc1cccc(C(F)(F)F)c1` gave a melting point of 128 to 129 °C.
Work on `CCCC1=C(C#N)C(c2cccc3ccccc23)c2c[nH]nc2N1` (configuration not stated) yielded a melting point of 263 °C.
For `CC(C)NNC(=O)OCc1ccccc1`, the melting point was 61 to 62 °C.
Work on `COc1ccc(C(O)CN)cc1OCc1ccccc1` (configuration not stated) yielded a melting point of 101 to 102 °C.
With `CC12CCC(=O)CC1CCC1C2CCC2(C)C(O)C(N=[N+]=[N-])CC12` (configuration not stated) the melting point was 165 to 167 °C.
`CC(C)(C)C(NC(=O)Cc1ccc(Cl)cc1)NC(=NC#N)Nc1cccnc1Cl` (configuration not stated) showed a melting point of 174 to 175 °C.
Compound `CCOC(=O)c1ccccc1-c1cc(-c2ccc(Cl)cc2Cl)no1` has a melting point of 85 to 86 °C.
With `CC(C)Cc1nccc2c(CC(=O)O)cccc12` the melting point was 152 °C.
For `COc1ccc(C(=O)c2cccc(C(F)(F)F)c2)cc1`, the melting point was 62.5 to 63.5 °C.
Work on `O=C(NCCN1CCCCC1)c1ccc(=O)n(Cc2ccc(-c3ccccc3)cc2)c1` yielded a melting point of 137 to 142 °C.
For `Oc1ccnc(OC(F)F)c1`, the melting point was 88.6 to 89.8 °C.
Work on `COC1(c2nc(Br)c(Sc3ccc(/C(C)=N/O)cc3)s2)CCOCC1` yielded a melting point of 130 °C.
Compound `CCC(Oc1ccccc1C(C)(C)C)C(=O)OC1CC(O)C=C2C=CC(C)C(CCC3CC(O)CC(=O)O3)C21` (mixture of isomers) has a melting point of 176 to 178 °C.
Compound `COc1nscc1C#N` has a melting point of 60 to 62 °C.
Work on `CC(C)(C)c1cc(C(=O)NN)cc(C(C)(C)C)c1O` yielded a melting point of 187 to 188 °C.
Compound `N#Cc1cnn2c1N(C(=O)CCl)CC=C2c1cc(Cl)ccc1Cl` has a melting point of 235 to 236 °C.
`CC(C)(C)OC(=O)N1CC(=NO)C2(CC2)C1` showed a melting point of 117 to 119 °C.
For `Cc1ccc([N+](=O)[O-])cc1Nc1nccc(-c2cncnc2)n1`, the melting point was 200 to 203 °C.
Work on `O=C1NC(=O)C(=Cc2ccc(C(=O)CCc3ccccc3)nc2)S1` yielded a melting point of over 250 °C.
In the case of `COC1C(O)C(CO)OC1n1cnc2c(N)nc(F)nc21` (configuration not stated), the melting point is reported as 239 to 241 °C.
`CCOC(=O)c1cn2cnc3ccccc3c2c1C(=O)OCC` showed a melting point of 125 to 126 °C.
Work on `O=C(Nc1ccc(-n2nc(C(F)(F)F)cc2C(F)(F)F)cc1)c1cccc(F)c1` yielded a melting point of 148 to 151 °C.
With `CC(=O)OCc1csc(Nc2ccc(Oc3ccccc3)cn2)n1` the melting point was 158 to 160 °C.
For `COc1ccnc(CCc2nc3cc(-c4ccc(S(=O)(=O)N5CCN(C(C)=O)CC5)cc4)cnc3[nH]2)c1`, the melting point was 138 to 140 °C.
In the case of `COc1cc2nc(Cl)nc(-c3cccc([N+](=O)[O-])c3)c2cc1OC`, the melting point is reported as 228 to 230 °C.
Compound `O=C(Cn1c(-c2ccncc2)ncc(NC(=O)OCc2ccccc2)c1=O)NC(Cc1ccccc1)C(=O)C(F)(F)F` (configuration not stated) has a melting point of 182 to 185 °C.
Work on `Cc1ccc(C)c2c1CN(NC(=S)NC(=O)c1ccccc1)C2` yielded a melting point of 163 to 164 °C.
For `Cc1oc(-c2ccco2)nc1CCOc1ccc([N+](=O)[O-])cn1`, the melting point was 120 to 122 °C.
Work on `N#CCCCCn1nc(C(N)=O)c2ccccc21` yielded a melting point of 182 to 185 °C.
Compound `CC(CCc1cc2cccnc2n(-c2cccc([N+](=O)[O-])c2)c1=O)c1ccncc1` (configuration not stated) has a melting point of 154 to 155 °C.
`CCc1ccc(S(=O)(=O)c2ccc(C)nc2Nc2ccc(OC)cc2Cl)cc1` showed a melting point of 110 to 112 °C.
`O=C(O)c1ccc(/C=C/c2ccc(O)c(C34CC5CC(CC(C5)C3)C4)c2)cc1` gave a melting point of 279 to 280 °C.
For `COC(=O)C(F)=CC1C(C(=O)OC(C#N)c2cccc(Oc3ccccc3)c2)C1(C)C` (configuration not stated), the melting point was 70 °C.
